Assay results reported in patent US11999699B2, “Substituted pyrazole amides” (GRUENENTHAL GMBH, priority 2021, dated 2024).

Molecular target: T1, human NaV1.8 (Homo sapiens, UniProt Q9Y5Y9)
T1 construct: The following NaV1.8 recombinant cell line was used for recordings: HEK-NaV1.8 (NM 006514.1); expressed in transfected cells; host or cells: HEK (recombinant cell line HEK-NaV1.8)
Assay: Electrophysiology: automated whole-cell voltage-clamp (patch clamp, Qube384) recordings of sodium currents in HEK-NaV1.8 cells
Format: cell-based
Settings: potency data either taken from inactivated or resting state, read-out: Potency category (human NaV1.8 IC50)
Method: Electrophysiology: Voltage-Clamp Recordings
The following NaV1.8 recombinant cell line was used for recordings: HEK-NaV1.8 (NM 006514.1) with in (NM 018400.3).
Sodium currents were measured using the patch clamp technique in the whole-cell configuration using the Qube384 (Sophion A/S, Copenhagen, Denmark) automated voltage clamp platform. “Multi hole” plates were used for the cell line expressing NaV1.8 while “single hole” plates were used for the recombinant cell lines expressing the other subtypes. Appropriate filters (for minimum seal resistance and minimum current size) and series resistance compensation (for high quality sodium channel recordings) were applied. Data was collected at ambient room temperature.
The recording extracellular solution contained (in mM): NaCl 145 mM, KCl 4 mM, CaCl2 2 mM, MgCl2 1 mM, HEPES 10 mM, Glucose 10 mM, pH 7.4 (NaOH). The intracellular recording solution contained (in mM): CsF 120 mM, CsCl 20 mM, NaCl 10 mM, EGTA 10 mM, HEPES 10 mM, pH 7.2 (CsOH). Currents were recorded at 25 kHz sampling frequency and filtered at 5 kHz. Series resistance compensation was applied at 65%.
Vehicle (VEH) is the control condition where cells are exposed to 0.3% DMSO without compound. All runs include VEH controls being exposed to the same voltage protocols to assess non-compound related phenomena such as run down and then used to isolate compound dependent effects on currents.
To check for state-dependence inhibition, the following voltage-sequence was applied every 20 seconds:
From a resting membrane potential of −120 mV, the first test pulse (P1; 20 ms to −10 mV) was applied to check for channels in the Resting State followed by a brief recovery (20 ms to −120 mV), then holding the membrane voltage to V112 (4 seconds at voltage to obtain half the channel at Rest and half Inactivated) with a subsequent second test pulse (P2; 20 ms to −10 mV) to check for channels in the Inactivated State, followed by another brief recovery (20 ms to −120 mV) and a final third test pulse (P3; 20 ms to −10 mV) to check for recovered channels.
To check for frequency-dependent inhibition, a 10 Hz protocol and a 20 Hz protocol were applied; namely,
From a resting membrane potential of −120 mV, 40-pulses (10 ms to −10 mV) was applied at 10 Hz (at 100 ms between pulses) and then at 20 Hz (at 50 ms between pulses).
Each parameter was recorded (P1, P2, P3, P40 from 10 Hz and P40 from 20 Hz) during a control period (lasting 5 minutes) when establishing the baseline and during compound period (lasting ˜12 minutes) when test compound (or vehicle) was applied. For each parameter, the value at the end of the compound period was normalized to the vehicle baseline; as follows
To adjust for any variance in the Na^+ current signal during the compound period (owing to cumulative inactivation independent of compound or shifts in biophysics over time), a dedicated segment of the recording wells in each 384 plate were dedicated to having only vehicle exposure. These vehicle-only recordings were used to correct for any apparent “run-up” or “run-down” in the experiment.
The adjusted inhibition was calculated as follows: […]
Percent inhibition was determined and IC50 values were calculated using a 4 parameter logistic model within XLFit Software (IDBS, Boston MA):
[formula] where A and B are the maximal and minimum inhibition respectively, C is the IC50 concentration and D is the (Hill) slope.
The potency data was either taken from inactivated or resting state.

T1 sequence (Q9Y5Y9 whole entry): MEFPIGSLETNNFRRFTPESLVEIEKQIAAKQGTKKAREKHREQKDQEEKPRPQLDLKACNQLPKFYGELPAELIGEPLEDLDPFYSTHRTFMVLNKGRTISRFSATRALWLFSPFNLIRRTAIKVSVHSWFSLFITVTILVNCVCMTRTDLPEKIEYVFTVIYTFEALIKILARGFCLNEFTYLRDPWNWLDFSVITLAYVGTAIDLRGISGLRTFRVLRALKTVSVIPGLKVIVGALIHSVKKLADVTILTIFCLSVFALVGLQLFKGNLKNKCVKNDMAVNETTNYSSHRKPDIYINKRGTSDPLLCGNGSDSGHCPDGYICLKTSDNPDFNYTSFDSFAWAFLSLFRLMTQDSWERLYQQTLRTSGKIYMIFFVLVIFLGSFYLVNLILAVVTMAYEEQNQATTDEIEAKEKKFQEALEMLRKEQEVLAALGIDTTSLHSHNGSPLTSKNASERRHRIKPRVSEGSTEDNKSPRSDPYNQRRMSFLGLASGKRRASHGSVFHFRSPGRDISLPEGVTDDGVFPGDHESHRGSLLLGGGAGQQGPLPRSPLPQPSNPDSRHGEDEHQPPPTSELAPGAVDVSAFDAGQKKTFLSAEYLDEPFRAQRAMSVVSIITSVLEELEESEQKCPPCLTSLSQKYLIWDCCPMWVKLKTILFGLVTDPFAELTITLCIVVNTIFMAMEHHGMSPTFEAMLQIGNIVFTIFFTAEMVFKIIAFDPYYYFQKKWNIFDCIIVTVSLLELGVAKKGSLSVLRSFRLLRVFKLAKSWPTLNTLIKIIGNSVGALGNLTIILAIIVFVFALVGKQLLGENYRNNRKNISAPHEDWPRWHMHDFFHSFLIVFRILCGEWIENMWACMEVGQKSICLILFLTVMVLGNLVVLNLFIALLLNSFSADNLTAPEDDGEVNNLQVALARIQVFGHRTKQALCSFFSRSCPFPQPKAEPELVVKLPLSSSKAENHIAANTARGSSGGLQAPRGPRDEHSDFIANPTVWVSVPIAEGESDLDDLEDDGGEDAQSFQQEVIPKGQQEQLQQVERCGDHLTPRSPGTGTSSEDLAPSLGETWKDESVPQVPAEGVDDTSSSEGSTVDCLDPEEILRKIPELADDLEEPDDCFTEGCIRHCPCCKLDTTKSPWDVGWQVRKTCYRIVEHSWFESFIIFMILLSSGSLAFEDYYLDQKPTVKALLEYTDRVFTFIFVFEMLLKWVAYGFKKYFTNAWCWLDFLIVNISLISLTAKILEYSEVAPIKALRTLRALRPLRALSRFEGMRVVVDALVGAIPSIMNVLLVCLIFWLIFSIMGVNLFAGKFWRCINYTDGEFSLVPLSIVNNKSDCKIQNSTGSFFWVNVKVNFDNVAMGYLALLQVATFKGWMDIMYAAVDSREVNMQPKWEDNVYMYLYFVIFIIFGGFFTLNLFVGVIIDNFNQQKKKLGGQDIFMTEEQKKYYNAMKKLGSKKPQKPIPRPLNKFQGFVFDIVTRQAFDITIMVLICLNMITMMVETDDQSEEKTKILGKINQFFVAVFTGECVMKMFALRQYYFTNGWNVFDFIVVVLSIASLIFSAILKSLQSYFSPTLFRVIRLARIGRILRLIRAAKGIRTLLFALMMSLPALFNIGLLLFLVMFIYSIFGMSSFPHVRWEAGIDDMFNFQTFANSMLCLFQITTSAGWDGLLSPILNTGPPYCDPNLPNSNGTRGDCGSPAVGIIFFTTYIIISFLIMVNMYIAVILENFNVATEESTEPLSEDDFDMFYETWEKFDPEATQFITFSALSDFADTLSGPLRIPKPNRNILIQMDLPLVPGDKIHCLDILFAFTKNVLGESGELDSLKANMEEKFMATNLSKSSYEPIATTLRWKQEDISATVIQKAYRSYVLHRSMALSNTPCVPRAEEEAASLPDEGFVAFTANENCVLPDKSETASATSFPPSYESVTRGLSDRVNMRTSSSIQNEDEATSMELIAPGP
T1 sequence (Q9NY72 23-215 partner): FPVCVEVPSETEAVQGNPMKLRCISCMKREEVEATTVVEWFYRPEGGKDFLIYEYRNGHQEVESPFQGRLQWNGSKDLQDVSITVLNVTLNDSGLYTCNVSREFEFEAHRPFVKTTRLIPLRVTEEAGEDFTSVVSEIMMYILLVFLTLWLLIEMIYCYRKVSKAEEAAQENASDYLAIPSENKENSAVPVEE

Row | IC50 [µM] | Compound
1 | ≤ 0.1 | Cc1c(C(C)(F)F)nn(CC2(C(F)F)CC(F)(F)C2)c1C(=O)Nc1ccnc(S(N)(=O)=O)c1 [SC-316, 3-(1,1-difluoroethyl)-1-((1-(difluoromethyl)-3,3-difluorocyclobutyl)methyl)-4-methyl-N-(2-sulfamoylpyridin-4-yl)-1H-pyrazole-5-carboxamide]
2 | ≤ 0.1 | NC(=O)c1cc(NC(=O)c2c(C(F)(F)F)c(C3CC3)nn2C[C@@H]2CCO[C@@H]2C(F)(F)F)ccn1 (single isomer, unassigned) [SC-147b]
3 | ≤ 0.1 | Cc1c(C(F)(F)F)nn(CC2CCC(F)(F)C2)c1C(=O)Nc1ccnc(C(N)=O)c1 (single isomer, unassigned) [SC-118a]
4 | 0.1 to 1 | Cc1c(OC(F)(F)F)nn(CC2CC(F)(F)C2)c1C(=O)Nc1ccnc(C(N)=O)c1 [SC-318, 4-(1-((3,3-difluorocyclobutyl)methyl)-4-methyl-3-(trifluoromethoxy)-1H-pyrazole-5-carboxamido)picolinamide]
5 | 1 to 10 | Cc1nn(CC2CCC(F)(F)CC2)c(C(=O)Nc2ncc(C(N)=O)o2)c1C(F)(F)F [SC-256, 2-(1-((4,4-difluorocyclohexyl)methyl)-3-methyl-4-(trifluoromethyl)-1H-pyrazole-5-carboxamido)oxazole-5-carboxamide]
6 | 0.1 to 1 | Cc1nn(CC2CCC(F)(F)CC2)c(C(=O)Nc2cnnc(C(N)=O)c2)c1C(F)(F)F [SC-321, 5-(1-((4,4-difluorocyclohexyl)methyl)-3-methyl-4-(trifluoromethyl)-1H-pyrazole-5-carboxamido)pyridazine-3-carboxamide]
7 | 0.1 to 1 | Cc1nn(C[C@H]2CCC(F)(F)C2)c(C(=O)Nc2cncc(C(N)=O)c2)c1C(F)(F)F [SC-247S]
8 | ≤ 0.1 | Cc1c(C(C)(F)F)nn(CC2CCC(F)(F)C2)c1C(=O)Nc1cccc(S(N)(=O)=O)c1 (single isomer, unassigned) [SC-296a]
9 | 0.1 to 1 | CS(=O)(=O)c1cccc(NC(=O)c2cc(C#N)nn2CC2CCCCC2)c1 [SC-38, 5-cyano-2-(cyclohexylmethyl)-N-(3-methylsulfonylphenyl)pyrazole-3-carboxamide]
10 | ≤ 0.1 | CS(=O)(=O)c1cc(NC(=O)c2c(C(F)F)c(C3CC3)nn2CC2CCC(F)(F)C2)ccn1 (stereo not drawn) [SC-275, 3-cyclopropyl-1-((3,3-difluorocyclopentyl)methyl)-4-(difluoromethyl)-N-(2-(methylsulfonyl)pyridin-4-yl)-1H-pyrazole-5-carboxamide]
11 | 0.1 to 1 | COc1c(C(C)(F)F)nn(CC2CCC(F)(F)C2)c1C(=O)Nc1ccnc(C(N)=O)c1 (single isomer, unassigned) [SC-271b]
12 | ≤ 0.1 | NC(=O)c1cc(NC(=O)c2c(C(F)(F)F)c(OCC3CC3)nn2CC2CCC(F)(F)C2)ccn1 (racemic) [SC-157, 4-(3-(cyclopropylmethoxy)-1-((3,3-difluorocyclopentyl)methyl)-4-(trifluoromethyl)-1H-pyrazole-5-ca±oxamido)picolinamide]
13 | 0.1 to 1 | Cc1c([C@H](C)C(F)F)nn(CC2CC(F)(F)C2)c1C(=O)Nc1ccnc(C(N)=O)c1 [SC-192b]
14 | 1 to 10 | Cc1c(C(C)(F)F)nn([C@H](C)C2CC(F)(F)C2)c1C(=O)Nc1ccnc(S(C)(=O)=O)c1 [SC-222b]
15 | ≤ 0.1 | Cc1c(C(F)(F)C(F)(F)F)nn(CC2CCC2(F)F)c1C(=O)Nc1ccnc(C(N)=O)c1 (single isomer, unassigned) [SC-278b]
16 | 0.1 to 1 | Cc1c([C@@H](C)C(F)F)nn(CC2CC(F)(F)C2)c1C(=O)Nc1ccnc(C(N)=O)c1 [SC-192a]
17 | 0.1 to 1 | Cc1c(C(C)(F)F)nn(C[C@H]2C[C@@H](F)C2)c1C(=O)Nc1ccnc(C(N)=O)c1 [SC-301, 4-(3-(1,1-difluoroethyl)-1-((3-fluorocyclobutyl)methyl)-4-methyl-1H-pyrazole-5-carboxamido)picolinamide]

Row | IC50 [µM] | Compound
18 | 0.1 to 1 | CS(=O)(=O)c1cccc(NC(=O)c2c(C(F)(F)F)cnn2CC2CCC2)c1 [SC-24, 2-(cyclobutylmethyl)-N-(3-methylsulfonylphenyl)-4-(trifluoromethyl)pyrazole-3-carboxamide]
19 | 1 to 10 | Cc1nn(CC2COC2)c(C(=O)Nc2cccc(S(C)(=O)=O)c2)c1C(F)(F)F [SC-234, 3-methyl-N-(3-(methyIsulfonyl)phenyl)-1-(oxetan-3-yImethyl)-4-(trifluoromethyl)-1H-pyrazole-5-carboxamide]
20 | ≤ 0.1 | CC1CC(Cn2nc(C3CC3)c(C(F)(F)F)c2C(=O)Nc2ccnc(C(N)=O)c2)CCO1 (stereo not drawn) [SC-135, 4-(3-cyclopropyl-1-((2-methyltetraliydro-2H-pyran-4-yl)methyl)-4-(trifluoromethyl)-1H-pyrazole-5-carboxamido)picolinamide]
21 | 1 to 10 | Cc1nn(CC2CCC(F)(F)CC2)c(C(=O)Nc2ccnc(C#N)c2)c1C [SC-231, N-(2-cyanopyridin-4-yl)-1-((4,4-difluorocyclohexyl)methyl)-3,4-dimethyl-1H-pyrazole-5-carboxamide]
22 | ≤ 0.1 | Cc1c(C(C)(F)F)nn(CC2(C)CCC(F)(F)C2)c1C(=O)Nc1ccnc(C(N)=O)c1 (single isomer, unassigned) [SC-214a]
23 | 1 to 10 | Cc1c(C(C)(F)F)nn(CC2(C)CCCO2)c1C(=O)Nc1ccnc(S(N)(=O)=O)c1 (single isomer, unassigned) [SC-319b]
24 | 0.1 to 1 | Cc1c(C(C)(F)F)nn(CC2(F)CC2)c1C(=O)Nc1ccnc(S(N)(=O)=O)c1 [SC-310, 3-(1,1-difluoroethyl)-1-((1-fluorocyclopropyl)methyl)-4-methyl-N-(2-sulfamoylpyridin-4-yl)-lH-pyrazole-5-carboxamide]
25 | 1 to 10 | NC(=O)c1cc(NC(=O)c2c(OCC(F)(F)F)c(C3CC3)nn2CC2CCC(F)(F)C2)ccn1 (stereo not drawn) [SC-298, 4-(3-cyclopropyl-1-((3,3-difluorocyclopentyl)methyl)-4-(2,2,2-trifluoroethoxy)-1H-pyrazole-5-carboxamido)picolinamide]
26 | ≤ 0.1 | NC(=O)c1cc(NC(=O)c2c(C(F)(F)F)c(C3CC3)nn2CC2CCC2)ccn1 [SC-159, 4-(1-(cyclobutylmethyl)-3-cyclopropyl-4-(trifluoromethyl)-1H-pyrazole-5-carboxamido)picolinamide]
27 | 1 to 10 | Cc1nn(C[C@@H]2CCC(F)(F)C2)c(C(=O)Nc2ccnc(C(N)=O)n2)c1C(F)(F)F [SC-248R]
28 | ≤ 0.1 | Cc1c(C(F)(F)F)nn(CC2CCC(F)(F)C2)c1C(=O)Nc1ccnc(S(N)(=O)=O)c1 (single isomer, unassigned) [SC-254b]
29 | 0.1 to 1 | Cc1c(C(F)(F)F)nn(CC2CCC(F)(F)CC2)c1C(=O)Nc1cncc(S(N)(=O)=O)c1 [SC-242, 1-((4,4-difluorocyclohexyl)methyl)-4-methyl-N-(5-sulfamoylpyridin-3-yl)-3-(trifluoromethyl)-1H-pyrazole-5-carboxamide]
30 | ≤ 0.1 | NC(=O)c1cc(NC(=O)c2c(C(F)(F)F)c(C3CC3)nn2CC2CCC2(F)F)ccn1 (single isomer, unassigned) [SC-154a, 4-(3-cyclopropyl-1-((2,2-difluorocyclobutyl)methyl)-4-(trifluoromethyl)-1H-pyrazole-5-carboxamido)picolinamide]
31 | 0.1 to 1 | O=C(Nc1cc[nH]c(=O)c1)c1c(C(F)(F)F)cnn1CC1CCCCC1 [SC-30, 1-(cyclohexylmethyl)-N-(2-oxo-1,2-dihydropyridin-4-yl)-4-(trifluoromethyl)-1H-pyrazole-5-carboxamide]
32 | ≤ 0.1 | NC(=O)c1cc(NC(=O)c2c(C(F)(F)F)c(C3CC3)nn2CC2CC(OC(F)(F)F)C2)ccn1 (single isomer, unassigned) [SC-219a]
33 | 0.1 to 1 | CS(=O)(=O)c1cc(NC(=O)c2c(C(F)(F)F)c(C3CC3)nn2CC2CC(OC(F)F)C2)ccn1 (stereo not drawn) [SC-290, 3-cyclopropyl-1-((3-(difluoromethoxy)cyclobutyl)methyl)-N-(2-(methyIsulfonyl)pyridin-4-yl)-4-(trifluoromethyl)-1H-pyrazole-5-carboxamide]
